Read-outs that look alike come from different tables or passages of the source.
Legend:
PgpGFP [1] = target: T1, PgpGFP (Homo sapiens, UniProt P08183); test: Drug mediated microtubule depolymerization in PgpGFP transfected HeLa cells (anti-b-tubulin immunofluorescence); conditions: for effect of PgpGFP expression on sensitivity of cells to the drug: microtubule depolymerization, 30 min
Protocol: Cells were plated on 18 mm glass coverslips placed in 12-well dishes. […] For tubulin staining, cells were incubated for 30 minutes in the presence of indicated concentrations of vincristine (Calbiochem), colchicine (Calbiochem) or nocodazole (Sigma). Cells were then fixed, permeabilized, and labeled with 2 μg/ml Cy3-labeled anti-b-tubulin antibody, clone TUB 2.1 (Sigma).
We used a functional assay to quantify the effect of PgpGFP expression on the cytosolic activity of chemotherapeutics. Certain chemotherapeutics, such as colchicine, vincristine and nocodazole, depolymerize microtubules. The state of a cell's microtubules after being treated with these drugs is a measurement of the cellular concentration of the drug. Thus, we examined the microtubules using immunofluorescence against b-tubulin after drug treatment.

PgpGFP [2] = target: T1, PgpGFP
Protocol: (§1) HeLa cells (ATCC CCL-2) were cultured as per ATCC recommendations.
(§2) Epifluorescence microscopy was done on an inverted IX-70 microscope (Olympus America, Melville, N.Y.). […] Excitation was provided using a 150 Watt Xenon arc lamp (OptiQuip, Beaver Falls, Pa.). Excitation and emission filters were selected using filter wheels (Ludl Electronic Products, Hawthorne, N.Y.). All filters were from Chroma Technology (Brattleboro, Vt.).
(§3) Confocal microscopy was done on an upright Axiplan 2 microscope with a LSM 510 confocal attachment (Carl Zeiss, Thomwood, N.Y.). Excitation was provided an Argon/Krypton laser with lines at 488 nm and 568 nm and a Helium/Neon laser at 633 nm. The following laser lines and emission filters were used for confocal microscopy: GFP λex=488 nm, λem=500-530 nm, Texas Red, Cy3, TMRE: λex=568 nm, λem=580 nm LP, Fura Red, daunorubicin: λex=488 nm, λem=580 nm LP.
(§4) All fluorescent dyes were from Molecular Probes. Daunorubicin was from Calbiochem. Cells were incubated with the indicated drug or dye for the indicated amount of time in Opti-MEM without phenol red and with 10 mM Hepes (Life Technologies, Rockville, Md.) in a 5% CO2, 37° C. incubator prior to observation.

PgpGFP [3] = target: T1, PgpGFP; test: Accumulation of fluorescent drugs and dyes in PgpGFP transfected HeLa cells (fluorescence microscopy); conditions: 30 min incubation, 1 μM daunorubicin (confocal), 200 nM Ho342 (epifluorescence)
Protocol: as §1, §2, §3, §4

PgpCFP = PgpCFP (Homo sapiens, UniProt P08183); test: Accumulation of AM ester dyes in PgpCFP transfected cells (fluorescence microscopy); conditions: dyes marked (CFP)
Sequence of PgpCFP (P08183 whole entry): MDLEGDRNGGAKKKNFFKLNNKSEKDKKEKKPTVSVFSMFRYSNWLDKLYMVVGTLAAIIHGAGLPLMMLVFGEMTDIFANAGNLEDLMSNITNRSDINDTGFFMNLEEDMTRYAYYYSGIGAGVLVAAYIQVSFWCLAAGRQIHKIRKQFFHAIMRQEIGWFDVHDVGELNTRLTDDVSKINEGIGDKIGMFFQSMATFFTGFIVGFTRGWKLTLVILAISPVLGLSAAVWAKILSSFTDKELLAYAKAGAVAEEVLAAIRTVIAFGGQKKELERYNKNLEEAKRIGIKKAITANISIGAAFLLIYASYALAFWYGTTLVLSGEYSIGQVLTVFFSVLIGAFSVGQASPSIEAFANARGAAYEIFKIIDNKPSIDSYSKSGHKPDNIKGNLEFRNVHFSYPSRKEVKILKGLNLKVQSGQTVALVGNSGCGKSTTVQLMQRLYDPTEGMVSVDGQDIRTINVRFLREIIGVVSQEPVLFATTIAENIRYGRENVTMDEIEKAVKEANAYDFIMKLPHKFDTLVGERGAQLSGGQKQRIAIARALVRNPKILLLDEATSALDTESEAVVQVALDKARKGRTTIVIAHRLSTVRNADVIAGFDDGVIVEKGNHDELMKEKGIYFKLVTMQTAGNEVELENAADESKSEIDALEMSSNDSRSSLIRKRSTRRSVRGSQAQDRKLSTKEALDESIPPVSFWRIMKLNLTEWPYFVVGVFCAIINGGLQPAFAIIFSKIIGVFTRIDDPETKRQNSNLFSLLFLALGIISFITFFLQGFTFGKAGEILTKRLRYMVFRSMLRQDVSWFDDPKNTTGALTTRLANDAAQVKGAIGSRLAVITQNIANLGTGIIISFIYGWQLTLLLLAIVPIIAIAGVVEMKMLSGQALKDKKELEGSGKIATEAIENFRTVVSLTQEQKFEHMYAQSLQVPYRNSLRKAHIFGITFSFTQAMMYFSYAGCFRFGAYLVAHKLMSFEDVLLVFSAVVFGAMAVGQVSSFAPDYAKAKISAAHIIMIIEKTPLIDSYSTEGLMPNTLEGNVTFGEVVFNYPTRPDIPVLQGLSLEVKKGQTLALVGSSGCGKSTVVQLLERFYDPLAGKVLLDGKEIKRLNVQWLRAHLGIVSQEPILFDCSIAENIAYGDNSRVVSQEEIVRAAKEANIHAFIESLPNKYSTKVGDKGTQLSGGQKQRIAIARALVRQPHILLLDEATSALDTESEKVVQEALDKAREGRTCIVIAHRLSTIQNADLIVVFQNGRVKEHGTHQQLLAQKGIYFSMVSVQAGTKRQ

T1 sequence (P08183 whole entry): as above

## COc1cc2c(c(OC)c1OC)-c1ccc(OC)c(=O)cc1[C@@H](NC(C)=O)CC2 [Colchicine, colchicine]
PgpGFP [1]; high level PgpGFP expression
  Fold resistance (high level PgpGFP expression, drug mediated microtubule depolymerization): 5-25 fold
PgpGFP [1]
  effect of PgpGFP expression on sensitivity of cells to the drug: decreased the sensitivity

## CC(=O)OCOC(=O)CN(CC(=O)OCOC(C)=O)c1ccc(C)cc1OCCOc1cc2cc(C=C3NC(=S)NC3=O)oc2cc1N(CC(=O)OCOC(C)=O)CC(=O)OCOC(C)=O [FURA Red AM]
PgpGFP [2]
  Effects on fluorescence (effect of PgpGFP expression on accumulation of AM esters): >10 Fold

## CC(=O)OCOC(=O)CN(CC(=O)OCOC(C)=O)c1ccc(C)cc1OCCOc1cc2cc(-c3ncc(C(=O)OCOC(C)=O)o3)oc2cc1N(CC(=O)OCOC(C)=O)CC(=O)OCOC(C)=O [FURA-2 AM]
PgpGFP [2]
  Effects on fluorescence (effect of PgpGFP expression on accumulation of AM esters): >10 Fold

## CCOc1ccc(-c2nc3ccc(-c4nc5ccc(N6CCN(C)CC6)cc5[nH]4)cc3[nH]2)cc1 [Ho342, Hoechst 33342]
PgpGFP [3]
  fluorescence lower in PgpGFP expressing cell compared to Pgp negative cell: 3 fold

## COC(=O)Nc1nc2ccc(C(=O)c3cccs3)cc2[nH]1 [Nocodazole, nocodazole]
PgpGFP [1]; high level PgpGFP expression
  Fold resistance (high level PgpGFP expression, drug mediated microtubule depolymerization): None
PgpGFP [1]
  effect of PgpGFP expression on sensitivity of cells to the drug: no effect

## CC[C@]1(O)C[C@H]2CN(CCc3c([nH]c4ccccc34)[C@@](C(=O)OC)(c3cc4c(cc3OC)N(C=O)[C@H]3[C@@](O)(C(=O)OC)[C@H](OC(C)=O)[C@]5(CC)C=CCN6CC[C@]43[C@@H]65)C2)C1 [Vincristine, vincristine]
PgpGFP [1]
  Fold resistance (high level PgpGFP expression, drug mediated microtubule depolymerization): 25-125 fold

## Calcein AM
PgpCFP
  Effects on fluorescence (effect of PgpCFP expression on accumulation of AM esters): >10 Fold

Reference: patent publication US20030049597A1, “Chimeric fluorescent enzymes and uses thereof” (priority 2001, published 2003)
